Measured values as given in publication PMC8224038, “Anti-Leukemic Properties of Aplysinopsin Derivative EE-84 Alone and Combined to BH3 Mimetic A-1210477” (Marine Drugs, 2021).
Like-named read-outs stand apart in the source and are kept apart here.

Columns and labels:
K562 cells [1] = experiment: Cell cycle analysis (PI, FACS); format: cell-based, human; details: Celecoxib 40 μM
Protocol: Cells were collected and fixed in 70% ethanol. DNA was stained with propidium iodide (PI) solution (1 μg/mL, Sigma-Aldrich, St. Louis, MO, USA) in 1XPBS (Biosesang, Seongnam, Korea) for 30 min at 37 °C, supplemented with RNase A (100 μg/mL, Roche, Basel, Switzerland). Samples were analyzed by flow cytometry using the FACSCalibur^TM system, Becton Dickinson (BD) Biosciences (San Jose, CA, USA). Data were recorded statistically (10,000 events/sample) using the Cell Quest software (BD Biosciences) and analyzed using Flow-Jo 8.8.5 software (Tree Star, Inc., Ashland, OR, USA).

K562 cells [2] = experiment: Trypan blue exclusion test, viability; format: cell-based, human; details: for viability of K562 cells: concentrations up to 50 µM, 24, 48, 72 h
Protocol: (§1) Cell proliferation and viability were assessed by the trypan blue exclusion method (Lonza), and viable cells were counted using a hematocytometer (Marienfeld, Lauda-Königshofen, Germany). Differential toxicity was calculated by comparing the viability of RPMI 1788 cells to the viability of cancer cells (normal/cancer cells). The difference in viability was expressed in terms of fold change.

K562IR cells = experiment: Trypan blue exclusion test, viability; format: cell-based; details: Homo sapiens, A-1210477 20 µM, 24 h
Protocol: as §1

K562 cells [3] = experiment: Annexin V APC/PI staining quantified by FACS; format: cell-based, human
From the text: (§2) The percentage of apoptotic cells was quantified as the fraction of cells showing fragmented nuclei, as assessed by fluorescence microscopy (Nikon, Tokyo, Japan) after staining with Hoechst 33342 (Sigma-Aldrich) and propidium iodide (Sigma-Aldrich). In addition, apoptosis was confirmed by Annexin V APC (Biolegend, 640919)/propidium iodide (BD Biosciences, 556547) staining and fluorescence-activated cell sorter (FACS) analysis according to the manufacturer protocol (BD Biosciences, 556547).

K562 cells [4] = experiment: Hoechst/PI staining by fluorescent microscopy; format: cell-based, human; details: K562, 24 h, A-1210477 10 µM alone (Figure 7D)
From the text: as §2

K562 cells [5] = experiment: Trypan blue exclusion test, proliferation (GI50); format: cell-based, human; details: concentrations up to 50 µM; 24, 48, 72 h
Protocol: as §1

RPMI 1788 [6] = experiment: Trypan blue exclusion test, proliferation (GI50) in noncancerous cells; format: cell-based, human
Protocol: as §1

RPMI 1788 [7] = experiment: Trypan blue exclusion test, viability (IC50) in noncancerous cells; format: cell-based, human; details: for IC50: read-out: IC50 (50% cell death)
Protocol: as §1

zebrafish embryos = experiment: Zebrafish toxicity; details: 24 h exposure
Protocol: For toxicity assays, embryos were treated with 0.003% phenylthiourea (PTU) 14 h before the assay to remove pigmentation. Then, 2 h before the assay, the embryo’s shell was eliminated and then treated for up to 24 h with aplysinopsin compounds at indicated concentrations in 24-well plates. Viability and abnormal development were assessed after 24 h of treatment under light microscopy (Carl Zeiss Stereomicroscope DV4, Seoul, Korea). Pictures were taken by fixing embryos onto a glass slide with 3% methylcellulose (Sigma-Aldrich).

[8] = K562, 24 h, A-1210477 10 μM, with z-VAD-fmk (50 μM)
[9] = K562, 24 h, Ima 1 μM, with z-VAD-fmk (50 μM)

Question: Which results are given for `Cc1ccc(-c2cc(C(F)(F)F)nn2-c2ccc(S(N)(=O)=O)cc2)cc1` [Celecoxib, reference compound]?
Answer: G1 cell cycle phase (K562 cells [1]; K562, 48 h): 64.77 ± 3.09%; G2/M cell cycle phase (K562 cells [1]; K562, 48 h): 17.44 ± 2.13%; S cell cycle phase (K562 cells [1]; K562, 48 h): 15.00 ± 0.93%; Sub-G1 cell cycle phase (K562 cells [1]; K562, 48 h): 2.79 ±1.90%; G1 cell cycle phase (K562 cells [1]; K562, 72 h): 68.43 ± 4.67%; G2/M cell cycle phase (K562 cells [1]; K562, 72 h): 16.96 ± 3.04%; S cell cycle phase (K562 cells [1]; K562, 72 h): 11.20 ± 2.37%; Sub-G1 cell cycle phase (K562 cells [1]; K562, 72 h): 3.41 ± 2.04%

Question: With `Cc1nn(C)c(COc2ccc(N3CCN(S(=O)(=O)N(C)C)CC3)cc2)c1-c1cccc2c(CCCOc3cccc4ccccc34)c(C(=O)O)n(CCN3CCOCC3)c12` [Compound A-1210477, reference compound] as the molecule, how does the viability at 10 µM (K562 cells [2]; Homo sapiens, K562, A-1210477 10 µM, 24 h) read?
Answer: Its viability at 10 µM is 79.3 ± 1.5%.

Question: What about the viability at 20 µM (K562IR cells) of the same molecule?
Answer: The viability at 20 µM was 73 ± 3.6%.

Question: What about the “AnnV+/PI+ (%)” value (K562 cells [3]; K562, 24 h, A-1210477 10 μM) of the same molecule?
Answer: The value was 4.73 ± 0.17%.

Question: What about the “AnnV+/PI− (%)” value (K562 cells [3]; K562, 24 h, A-1210477 10 μM) of the same molecule?
Answer: Its value is 9.31 ± 1.78%.

Question: And the “Combined cell death (%)” value (K562 cells [3]; K562, 24 h, A-1210477 10 μM)?
Answer: Its value is 14.04 ± 3.24%.

Question: What about the “AnnV+/PI+ (%)” value (K562 cells [3]; [8]) of the same molecule?
Answer: Its value is 2.81 ± 0.21%.

Question: And the “AnnV+/PI− (%)” value (K562 cells [3]; [8])?
Answer: Its value is 6.04 ± 0.99%.

Question: And the “Combined cell death (%)” value (K562 cells [3]; [8])?
Answer: Its value is 8.85 ± 2.28%.

Question: What about the apoptotic cell death (K562 cells [4]) of the same molecule?
Answer: The apoptotic cell death was “about 14.5%”.

Question: Which “overall growth of K562 cells” value (K562 cells [5]) does the source give for `N#CCC(=O)NNC(=O)C(=O)c1cn(Cc2ccccc2)c2ccccc12` [EE-31, 2-(1-Benzyl-1H-Indol-3-yl)-N′-(2-Cyanoacetyl)-2-Oxoacetohydrazide] here?
Answer: Its value is “only weakly affected”.

Question: What about the “viability of K562 cells” value (K562 cells [2]) of the same molecule?
Answer: Its value is “only weakly affected”.

Question: And the melting point?
Answer: Its melting point is 264 to 266 °C.

Question: With `COc1ccc2c(c1)c(C(=O)C(=O)NNC(=O)CC#N)cn2Cc1ccccc1` [EE-80, 2-(1-Benzyl-5-Methoxy-1H-Indol-3-yl)-N′-(2-Cyanoacetyl)-2-Oxoacetohydrazide] as the molecule, how does the “overall growth of K562 cells” value (K562 cells [5]) read?
Answer: Its value is “only weakly affected”.

Question: What about the “viability of K562 cells” value (K562 cells [2]) of the same molecule?
Answer: The value was “only weakly affected”.

Question: What about the melting point of the same molecule?
Answer: The melting point was 199 to 201 °C.

Question: With `COc1ccc2c(c1)c(C(=O)C(=O)NNC(=O)CC#N)cn2Cc1ccc(Cl)cc1Cl` [EE-92, N′-(2-Cyanoacetyl)-2-(1-(2,4-Dichlorobenzyl)-5-Methoxy-1H-Indol-3-yl)-2-Oxoacetohydrazide] as the molecule, how does the “overall growth of K562 cells” value (K562 cells [5]) read?
Answer: The value was “only weakly affected”.

Question: What about the “viability of K562 cells” value (K562 cells [2]) of the same molecule?
Answer: The value was “only weakly affected”.

Question: And the melting point?
Answer: The melting point was 242 to 244 °C.

Question: For `Cc1ccc(NC(=O)c2ccc(CN3CCN(C)CC3)cc2)cc1Nc1nccc(-c2cccnc2)n1` [Ima, Imatinib, reference compound], which “AnnV+/PI+ (%)” value (K562 cells [3]; K562, 24 h, Ima 1 μM) is on record?
Answer: The value was 6.97 ± 0.88%.

Question: What about the “AnnV+/PI− (%)” value (K562 cells [3]; K562, 24 h, Ima 1 μM) of the same molecule?
Answer: The value was 37.77 ± 4.07%.

Question: What about the “Combined cell death (%)” value (K562 cells [3]; K562, 24 h, Ima 1 μM) of the same molecule?
Answer: The value was 44.74 ± 21.78%.

Question: What about the “AnnV+/PI+ (%)” value (K562 cells [3]; [9]) of the same molecule?
Answer: The value was 2.93 ± 0.15%.

Question: And the “AnnV+/PI− (%)” value (K562 cells [3]; [9])?
Answer: Its value is 10.86 ± 3.57%.

Question: And the “Combined cell death (%)” value (K562 cells [3]; [9])?
Answer: Its value is 13.79 ± 5.60%.

Question: What about the “AnnV+/PI+ (%)” value (K562 cells [3]; K562, Ima 1 μM (Figure 3B)) of the same molecule?
Answer: Its value is 31.27 ± 5.24%.

Question: And the “AnnV+/PI− (%)” value (K562 cells [3]; K562, Ima 1 μM (Figure 3B))?
Answer: Its value is 51.77 ± 2.29%.

Question: What about the “Combined cell death (%)” value (K562 cells [3]; K562, Ima 1 μM (Figure 3B)) of the same molecule?
Answer: The value was 83.03 ± 14.50%.

Question: For “(Z)-5-((1H-Indol-3-yl)Methylene)-1,3-Dimethylimidazolidine-2,4-Dione [EE-115]”, which “overall growth of K562 cells” value (K562 cells [5]) is on record?
Answer: Its value is “only weakly affected”.

Question: And the GI50 (RPMI 1788 [6]; RPMI 1788, 24 h)?
Answer: The GI50 was over 50 µM.

Question: What about the GI50 (RPMI 1788 [6]; RPMI 1788, 48 h) of the same molecule?
Answer: Its GI50 is 30.4 ± 1.95 µM.

Question: What about the GI50 (RPMI 1788 [6]; RPMI 1788, 72 h) of the same molecule?
Answer: Its GI50 is 27.7 ± 2.3 µM.

Question: What about the IC50 (RPMI 1788 [7]; RPMI 1788, 24 h) of the same molecule?
Answer: The IC50 was over 50 µM.

Question: And the IC50 (RPMI 1788 [7]; RPMI 1788, 48 h)?
Answer: Its IC50 is over 50 µM.

Question: What about the IC50 (RPMI 1788 [7]; RPMI 1788, 72 h) of the same molecule?
Answer: Its IC50 is over 50 µM.

Question: What about the “viability of RPMI 1788 cells” value (RPMI 1788 [7]; up to 50 µM, Figure S4B) of the same molecule?
Answer: Its value is “reduced the viability”.

Question: What about the “viability of K562 cells” value (K562 cells [2]) of the same molecule?
Answer: Its value is “only weakly affected”.

Question: And the “growth (relative body length) of zebrafish” value (zebrafish embryos; concentrations up to 100 µM)?
Answer: Its value is “did not affect”.

Question: And the “survival rate of zebrafish” value (zebrafish embryos; concentrations up to 100 µM)?
Answer: The value was “did not affect”.

Question: And the “morphological changes of zebrafish” value (zebrafish embryos; embryos 24 hpf, different concentrations)?
Answer: The value was “No significant morphological changes”.
